According to US20170240535A1, “HDAC1/2 INHIBITORS FOR THE TREATMENT OF NEURODEGENERATIVE AND/OR COGNITIVE DISORDERS” (Regenacy Pharmaceuticals, LLC, priority 2016, published 2017):
Read-outs that look alike come from different tables or passages of the source.

Key:
[1] = system: aged mice; assay: Morris Water Maze, young and aged mice; assay type: in vivo
Description: The ability of HDAC1/2 inhibitor Compound 1 to improve cognitive deficits in aged mice was tested by InterVivo Solutions (Toronto, Canada). Young (3 months old) and aged (18 months old) mice were compared in a Morris Water Maze to measure differences in learning and memory.
Mice were first placed in a pool of water and trained to swim to a visible flagged platform (the cued task). The mice received 3 trails per day for 5 days and the time it took for the mice to find the platform was timed. Young mice and aged mice performed equally well at this task, indicating there was no difference in swimming speed between the two cohorts of mice.
Next, mice were trained in a place task, in which the platform is submerged and hidden with flags to indicate the fixed location of the platform. The mice were trained for 4 days with 3 trials per day.

[2] = Pharmacokinetics of Compound 1 in plasma and brain after IP and PO administration (discrete PK); assay type: in vivo; conditions: male C57BL/6 mice; for Kp / Cmax / Tmax / half-life / AUC(0-inf) / AUC(0-t): mouse; for Kp: brain/plasma, read-out: AUCbrain/AUCplasma; for half-life: read-out: Terminal t1/2 (converted)
Description: Male C57Bl/6 mice were fasted overnight. Compound 1 was dissolved in 20% HydroxyPropyl-β-Cyclodextran in water. Fifteen animals per experimental arm were dosed by intraperitoneal injection or by oral gavage. Blood was collected via retro orbital puncture into K2EDTA tubes at 5 minutes, 15 minutes, 30 minutes, 1 hour, 2 hours, 4 hours, 8 hours and 24 hours after dosing. The blood was centrifuged at 2000 g for 5 minutes at 4° C. to obtain plasma. The plasma was extracted with acetonitrile and the level of compound was analyzed by LC/MS/MS. The level of compound in plasma was calculated from a standard curve in mouse plasma. For brain levels, animals were sacrificed at 15 minutes, 1 hour, 4 hours, 8 hours and 24 hours. Brains were removed and homogenized in acetonitrile and extracted. The level of compound in brain was calculated from a standard curve in mouse brain tissue. The maximum concentration, half-life and area under the curve were calculated using WinNonLin software. The ratio of area under the curve for plasma and brain samples was calculated to produce the brain/plasma ratio.

[3] = young mice (3 months old), 10 mg/kg/day, 4 weeks

In the case of Nc1ccc(-c2ccccc2)cc1NC(=O)c1cc2ccc(N3CCNCC3)cc2cn1 [Compound 1], the “learning rate in place task” value ([1]; aged mice (18 months old), 10 mg/kg/day, 4 weeks) was “learn at a rate greater than the young untreated cohort”, the “performance in place test vs corresponding untreated mice” value ([1]; young and aged mice, 10 mg/kg/day for 4 weeks) was “perform better in the place test than the corresponding untreated mice” and the “learning rate in place task” value [1, 3] was “dramatic improvement in learning rate”. The “reduction in escape latency as compared to untreated mice, place task” value [1, 3] was 25%, the “brain penetrance (from brain/plasma AUC ratios)” value ([2]; IP or PO, 3 and 10 mg/kg) was “highly brain penetrant” and the AUCINF-brain ([2]; brain, IP 3 mg/kg) was 21015 ng·h/g. For the same compound, the AUClast-brain ([2]; brain, IP 3 mg/kg) was 19737 ng·h/g, the AUCINF-brain ([2]; brain, IP 10 mg/kg) was 87609 ng·h/g and the AUClast-brain ([2]; brain, IP 10 mg/kg) was 78978 ng·h/g. It also gave an AUCINF-brain ([2]; brain, PO 3 mg/kg) of 10651 ng·h/g, an AUClast-brain ([2]; brain, PO 3 mg/kg) of 10019 ng·h/g and an AUCINF-brain ([2]; brain, PO 10 mg/kg) of 58481 ng·h/g. For the same compound, the AUClast-brain ([2]; brain, PO 10 mg/kg) was 53716 ng·h/g, the Kp ([2]; IP 3 mg/kg) was 15.1 and the Kp ([2]; IP 10 mg/kg) was 15.9. For the same compound, the Kp ([2]; PO 3 mg/kg) was 6.81, the Kp ([2]; PO 10 mg/kg) was 10.8 and the Cmax ([2]; brain, IP 3 mg/kg) was 1490 ng/g. For the same compound, the Tmax ([2]; brain, IP 3 mg/kg) was 4 h, the half-life ([2]; brain, IP 3 mg/kg) was 5.87 h and the Cmax ([2]; brain, IP 10 mg/kg) was 5320 ng/g. The Tmax ([2]; brain, IP 10 mg/kg) was 4 h, the half-life ([2]; brain, IP 10 mg/kg) was 7.13 h and the Cmax ([2]; brain, PO 3 mg/kg) was 743 ng/g. It also gave a Tmax ([2]; brain, PO 3 mg/kg) of 4 h, a half-life ([2]; brain, PO 3 mg/kg) of 5.8 h and a Cmax ([2]; brain, PO 10 mg/kg) of 3650 ng/g. For the same compound, the Tmax ([2]; brain, PO 10 mg/kg) was 8 h, the half-life ([2]; brain, PO 10 mg/kg) was 6.76 h and the AUC(0-inf) ([2]; plasma, IP 3 mg/kg) was 1320 ng·h/mL. For the same compound, the AUC(0-t) ([2]; plasma, IP 3 mg/kg) was 1310 ng·h/mL, the Cmax ([2]; plasma, IP 3 mg/kg) was 318 ng/mL and the Tmax ([2]; plasma, IP 3 mg/kg) was 0.5 h. It also gave a half-life ([2]; plasma, IP 3 mg/kg) of 3.88 h, an AUC(0-inf) ([2]; plasma, IP 10 mg/kg) of 5040 ng·h/mL and an AUC(0-t) ([2]; plasma, IP 10 mg/kg) of 4960 ng·h/mL. The Cmax ([2]; plasma, IP 10 mg/kg) was 1020 ng/mL, the Tmax ([2]; plasma, IP 10 mg/kg) was 0.25 h and the half-life ([2]; plasma, IP 10 mg/kg) was 4.2 h. For the same compound, the AUC(0-inf) ([2]; plasma, PO 3 mg/kg) was 1480 ng·h/mL, the AUC(0-t) ([2]; plasma, PO 3 mg/kg) was 1470 ng·h/mL and the Cmax ([2]; plasma, PO 3 mg/kg) was 135 ng/mL. It also gave a Tmax ([2]; plasma, PO 3 mg/kg) of 2 h, a half-life ([2]; plasma, PO 3 mg/kg) of 3.44 h and an AUC(0-inf) ([2]; plasma, PO 10 mg/kg) of 5060 ng·h/mL. The AUC(0-t) ([2]; plasma, PO 10 mg/kg) was 4990 ng·h/mL, the Cmax ([2]; plasma, PO 10 mg/kg) was 561 ng/mL and the Tmax ([2]; plasma, PO 10 mg/kg) was 1 h. It also gave a half-life ([2]; plasma, PO 10 mg/kg) of 4.08 h.
